# Measured values reported in the supplement of paper PMC11061612.
# Experiments:
# SH-4 (Melanoma) [1] = experiment: Bliss excess, mean over the matrix (fraction); higher = more synergy
# How it was run: (§1)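 Bliss excess equals the observed combination effect minus the expected value EA + EB − EA·EB, where EA and EB are the effects of each agent alone. Combination Emax is the second-highest inhibition within the matrix. Inhibition was scaled from CellTiter-Glo 2.0 luminescence, with 0 set by vehicle wells and 1 by blank wells, after 72 hours of two-drug dosing of cells plated in 1536-well plates.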
# [2] = tested on: RPMI-6666 (Non-Cancerous); experiment: as above
# How it was run: as §1
# [3] = tested on: LoVo (Colorectal Carcinoma); experiment: combination Emax (second highest fraction inhibited in the dose matrix, 72 h); higher = more inhibition; extreme values may be limits of the assay
# How it was run: as §1
# NCI-H2461 (Mesothelioma) = experiment: as above
# How it was run: as §1
# [4] = tested on: OC-314 (Ovarian Carcinoma); experiment: as above
# How it was run: as §1
# [5] = tested on: RT-112 (Bladder Carcinoma); experiment: as above
# How it was run: as §1
# SH-4 (Melanoma) [6] = experiment: as above
# How it was run: as §1
# [7] = tested on: NCI-H69 (Small Cell Lung Carcinoma); experiment: as above
# How it was run: as §1
# [8] = tested on: SK-OV-3 (Ovarian Carcinoma); experiment: as above
# How it was run: as §1
# [9] = tested on: HDLM-2 (Hodgkin's Lymphoma); experiment: as above
# How it was run: as §1
# [10] = tested on: Hs-633T (Other Solid Carcinomas); experiment: as above
# How it was run: as §1
# [11] = tested on: SUP-T1 (T-Lymphoblastic Leukemia); experiment: as above
# How it was run: as §1
# [12] = tested on: SU-DHL-6 (B-Cell Non-Hodgkin's Lymphoma); experiment: as above
# How it was run: as §1
# COLO-829 (Melanoma) [13] = experiment: Bliss excess, mean over the matrix (fraction); higher = more synergy
# How it was run: as §1
# [14] = tested on: CAL-51 (Breast Carcinoma); experiment: combination Emax (second highest fraction inhibited in the dose matrix, 72 h); higher = more inhibition; extreme values may be limits of the assay
# How it was run: as §1
# [15] = tested on: HCC-15 (Squamous Cell Lung Carcinoma); experiment: as above
# How it was run: as §1
# [16] = tested on: TE-4 (Esophageal Squamous Cell Carcinoma); experiment: as above
# How it was run: as §1
# [17] = tested on: KARPAS-231 (B-Cell Non-Hodgkin's Lymphoma); experiment: as above
# How it was run: as §1
# COLO-829 (Melanoma) [18] = experiment: as above
# How it was run: as §1
Structure (SMILES),Bliss excess (SH-4 (Melanoma) [1]),Bliss excess [2],combination Emax [3],combination Emax (NCI-H2461 (Mesothelioma)),combination Emax [4],combination Emax [5],combination Emax (SH-4 (Melanoma) [6]),combination Emax [7],combination Emax [8],combination Emax [9],combination Emax [10],combination Emax [11],combination Emax [12],Bliss excess (COLO-829 (Melanoma) [13]),combination Emax [14],combination Emax [15],combination Emax [16],combination Emax [17],combination Emax (COLO-829 (Melanoma) [18])
"C=CCn1c(=O)c2cnc(Nc3ccc(N4CCN(C)CC4)cc3)nc2n1-c1cccc(C(C)(C)O)n1 [AZD1775] + CCc1c2c(nc3ccc(O)cc13)-c1cc3c(c(=O)n1C2)COC(=O)[C@]3(O)CC [SN-38] (first compound max 1 µM, partner max 0.3 µM)",-0.072,-0.048,0.818,0.702,0.996,0.985,0.607,0.748,0.525,0.778,0.868,0.84,1,–,–,–,–,–,–
"C=CCn1c(=O)c2cnc(Nc3ccc(N4CCN(C)CC4)cc3)nc2n1-c1cccc(C(C)(C)O)n1 [AZD1775] + C1CN(CCC1(C(=O)N[C@@H](CCO)C2=CC=C(C=C2)Cl)N)C3=NC=NC4=C3C=CN4 [Capivasertib] (first compound max 3 µM, partner max 3 µM)",-0.0713,-0.0148,0.937,0.67,0.915,0.836,0.715,0.83,0.581,0.769,0.897,0.916,0.994,0.0335,0.941,0.878,0.88,1,0.322
"CC(=O)c1c(C)c2cnc(Nc3ccc(N4CCNCC4)cn3)nc2n(C2CCCC2)c1=O [Palbociclib] + Cn1cnc2c(F)c(Nc3ccc(Br)cc3Cl)c(C(=O)NOCCO)cc21 [Selumetinib] (first compound max 10 µM, 7x7, partner max 10 µM)",0.0333,-0.0324,0.679,0.395,0.478,0.427,0.886,0.487,0.237,0.335,0.599,0.599,0.806,-0.0772,0.289,0.547,0.403,0.264,0.614
"NC1(C(=O)N[C@@H](CCO)c2ccc(Cl)cc2)CCN(c2ncnc3[nH]ccc23)CC1 [Capivasertib] + CCN(CCO)CCCOc1ccc2c(Nc3cc(CC(=O)Nc4cccc(F)c4)[nH]n3)ncnc2c1 [AZD2811] (first compound max 10 µM, 7x7, partner max 1 µM)",-0.0507,-0.133,0.632,0.564,0.571,0.375,0.323,0.877,0.394,0.395,0.432,0.83,1,0.0142,0.651,0.773,0.748,0.551,0.35
"COc1nnc2ccc(N3CCC(c4ccc(OCCN5CCN(C)C(=O)[C@H]5C)cc4)CC3)nn12 [AZD5153] + Cc1c2c(nn1C)CSCc1cc(n(C)n1)CSc1cc(c3ccccc3c1)OCCCc1c(C(=O)O)n(C)c3c-2c(Cl)ccc13 [AZD5991] (first compound max 1 µM, 7x7, partner max 1 µM)",-0.0628,-0.0409,0.545,0.498,0.842,0.922,0.89,0.507,0.413,0.987,0.631,0.726,1,-0.0168,0.917,0.535,0.847,0.941,0.514
"Cn1cnc2c(F)c(Nc3ccc(Br)cc3Cl)c(C(=O)NOCCO)cc21 [Selumetinib] + CCN(CCO)CCCOc1ccc2c(Nc3cc(CC(=O)Nc4cccc(F)c4)[nH]n3)ncnc2c1 [AZD2811] (first compound max 10 µM, 7x7, partner max 1 µM)",-0.0324,0.0696,0.445,0.397,0.425,0.456,0.906,0.548,0.226,0.151,0.486,0.413,0.385,-0.0341,0.479,0.799,0.422,0.609,0.506
"C[C@@H](c1ccc2nccn2c1)n1nnc2ncc(-c3cnn(C)c3)nc21 [Savolitinib] + Cc1c2c(nn1C)CSCc1cc(n(C)n1)CSc1cc(c3ccccc3c1)OCCCc1c(C(=O)O)n(C)c3c-2c(Cl)ccc13 [AZD5991] (first compound max 1 µM, 7x7, partner max 1 µM)",-0.0252,-0.0329,0.195,0.345,0.163,0.602,0.192,0.159,0.112,0.962,0.12,0.138,1,-0.0075,0.152,0.124,0.422,0.606,0.242
"COc1nnc2ccc(N3CCC(c4ccc(OCCN5CCN(C)C(=O)[C@H]5C)cc4)CC3)nn12 [AZD5153] + Cn1cnc2c(F)c(Nc3ccc(Br)cc3Cl)c(C(=O)NOCCO)cc21 [Selumetinib] (first compound max 1 µM, 7x7, partner max 10 µM)",0.0222,-0.0462,0.862,0.501,0.795,0.436,0.953,0.543,0.404,0.393,0.748,0.718,0.913,-0.0086,0.712,0.693,0.871,0,0.663
"Cn1cnc2c(F)c(Nc3ccc(Br)cc3Cl)c(C(=O)NOCCO)cc21 [Selumetinib] + C=CCn1c(=O)c2cnc(Nc3ccc(N4CCN(C)CC4)cc3)nc2n1-c1cccc(C(C)(C)O)n1 [AZD1775] (first compound max 10 µM, partner max 1 µM)",-0.0546,0.023,0.723,0.569,0.452,0.61,0.94,0.133,0.365,0.71,0.628,0.809,0.616,-0.0734,0.893,0.612,0.642,0.982,0.481
"CS(=O)(=O)CCNCc1ccc(-c2ccc3ncnc(Nc4ccc(OCc5cccc(F)c5)c(Cl)c4)c3c2)o1 [Lapatinib] + C[C@@H](Oc1cc(-c2cnn(C3CCNCC3)c2)cnc1N)c1c(Cl)ccc(F)c1Cl [Crizotinib] (first compound max 10 µM, 7x7, partner max 10 µM)",-0.0365,-0.0624,0.708,0.91,0.881,0.941,0.883,0.845,0.776,0.552,0.934,0.875,0.983,-0.0345,0.691,0.945,1,0.57,0.711
"NC1(C(=O)N[C@@H](CCO)c2ccc(Cl)cc2)CCN(c2ncnc3[nH]ccc23)CC1 [Capivasertib] + CC(=O)c1c(C)c2cnc(Nc3ccc(N4CCNCC4)cn3)nc2n(C2CCCC2)c1=O [Palbociclib] (first compound max 10 µM, 7x7, partner max 10 µM)",-0.045,-0.0423,0.722,0.467,0.515,0.415,0.427,0.764,0.417,0.29,0.707,0.677,1,-0.0549,0.55,0.633,0.826,0.129,0.356
"CS(=O)(=O)CCNCc1ccc(-c2ccc3ncnc(Nc4ccc(OCc5cccc(F)c5)c(Cl)c4)c3c2)o1 [Lapatinib] + Cn1cnc2c(F)c(Nc3ccc(Br)cc3Cl)c(C(=O)NOCCO)cc21 [Selumetinib] (first compound max 10 µM, 7x7, partner max 10 µM)",-0.0519,0.0204,0.742,0.488,0.691,0.486,0.868,0.425,0.347,0.372,0.478,0.53,0.974,–,–,–,–,–,–
"Cc1nc(-c2cn3c(n2)-c2ccc(-c4cnn(C(C)(C)C(N)=O)c4)cc2OCC3)n(C(C)C)n1 [Taselisib] + O=C(Nc1ccc2[nH]nc(-c3ccncc3)c2c1)[C@@H]1CCN(CC(=O)N2CCN(c3ccc(-c4ncccn4)cc3)CC2)C1 [SCH772984] (first compound max 10 µM, 7x7, partner max 5 µM)",0.0374,-0.001,0.738,0.6,0.747,0.802,0.921,0.716,0.69,0.345,0.834,0.609,1,–,–,–,–,–,–
"CS(=O)(=O)CCNCc1ccc(-c2ccc3ncnc(Nc4ccc(OCc5cccc(F)c5)c(Cl)c4)c3c2)o1 [Lapatinib] + NC1(c2ccc(-c3nc4ccn5c(=O)[nH]nc5c4cc3-c3ccccc3)cc2)CCC1 [MK-2206] (first compound max 10 µM, 7x7, partner max 10 µM)",0.0025,0.0164,0.713,0.495,0.873,0.917,0.901,0.956,0.658,0.625,0.905,0.912,1,-0.0245,–,–,–,–,0.311
